In one assay the test system is PWR-1E cells. Nature of the assay: MTT cell proliferation assay, 7 d, PWR-1E. The assay is classed as cell-based. The following applies: Homo sapiens, 168 h, immortalized untransformed prostate cells, 7 d treatment. The source says:
Androgen-dependent (LNCaP), androgen-independent (PC-3) and castration resistant (C4-2B and 22Rv1) human prostate carcinoma cells were procured from American Type Culture Collection, Manassas, VA, USA and maintained in RPMI 1640 media (Gibco-Life Technologies, Grand Island, NY, USA) supplemented with 10% fetal bovine serum and 1% penicillin/streptomycin. […] Immortalized untransformed prostate epithelial cells, PWR1E from American Type Culture Collection were maintained in serum-free Keratinocyte media (Gibco) supplemented with epidermal growth factor and bovine pituitary extract. All cell lines were maintained in a 37 °C/5% CO2 humidified atmosphere.
Cell proliferation assay was performed as described previously. For cell growth experiment, cells were treated with the NRs for 7 days. MTT assay was performed at the end of the experiment. Calculations of combination indices were done using the Calcusyn program (Biosoft, Cambridge, United Kingdom). For colony formation assay, cells were plated 1000 per well in complete media and allowed to adhere for 24 h. The next day cells were treated with indicated compounds (5 μM). After 24 h compound containing media were removed, and cells were allowed to form colonies in complete media. Approximately 2 weeks later the colonies were fixed, stained with 0.5% crystal violet (sigma) for 30 min and counted manually. Results represent the mean ± standard deviation of three independent experiments.
Background: Tetrazolium dyes change colour on reduction, which living cells bring about.

Another assay deals with LNCaP cells. Nature of the assay: MTT cell viability of LNCaP cells with AR/MNK1 siRNA and VNLG-152. The assay is classed as cell-based, human. As to conditions: untransfected cells, 5 μM, 72 h. An excerpt:
To confirm whether the observed anti-cancer effects of VNLG-152 on PCa cells was primarily due to its inhibitory effects on AR and MNK, we investigated the impact of AR and/or MNK siRNA on the survival of LNCaP cells by MTT assay. […] Co-transfection of LNCaP cells with both AR and MNK1 siRNA (compare lanes 1 and 4) further augmented loss of viability in LNCaP cells.
Figure 6 Effect of siAR, siMNK1 on LNCaP cell viability, and VNLG-152 on key and downstream proteins in LNCaP cells (A) Western blot analysis of the expression of fAR, MNK1 and peIF4E in LNCaP cells transfected with 100 nM of siAR, siMNK1 and combinations for 18 h. (B) Effect of VNLG-152 (5 μmol) on cell proliferation in LNCaP cells transfected with siAR, siMNK1 and combinations as determined by MTT assay. The results represent the mean ± SEM of three independent experiments and are represented as a bar graph after normalizing to control cells. *, P< 0.05; ♣, P<0.01 compared with vehicle treated control. (C) Dose-dependent effect of VNLG-152 on the expression of AR, MNKs, peIF4E and downstream target proteins. Total cell lysate from LNCaP cells treated with VNLG-152 (0 - 20 μmol/L) for 24 h were separated by SDS-PAGE and probed with corresponding antibodies. Vehicle treated cells were included as control and all blots were reprobed for β-actin to ensure equal protein loading. […]

For the next assay, the system named is fAR, MNK1, MNK2, peIF4E. The assay is described as follows: Western blot of fAR, MNK1, MNK2, peIF4E in VNLG-152 treated LNCaP cells. The assay is classed as cell-based, human. The method, then:
Figure 6 Effect of siAR, siMNK1 on LNCaP cell viability, and VNLG-152 on key and downstream proteins in LNCaP cells (A) Western blot analysis of the expression of fAR, MNK1 and peIF4E in LNCaP cells transfected with 100 nM of siAR, siMNK1 and combinations for 18 h. (B) Effect of VNLG-152 (5 μmol) on cell proliferation in LNCaP cells transfected with siAR, siMNK1 and combinations as determined by MTT assay. The results represent the mean ± SEM of three independent experiments and are represented as a bar graph after normalizing to control cells. *, P< 0.05; ♣, P<0.01 compared with vehicle treated control. (C) Dose-dependent effect of VNLG-152 on the expression of AR, MNKs, peIF4E and downstream target proteins. Total cell lysate from LNCaP cells treated with VNLG-152 (0 - 20 μmol/L) for 24 h were separated by SDS-PAGE and probed with corresponding antibodies. Vehicle treated cells were included as control and all blots were reprobed for β-actin to ensure equal protein loading.
Figure 7 VNLG-152 induced AR degradation by ubiquitin proteasomal pathway in LNCaP cells (A) Western blot analysis of the expression of fAR in LNCaP cells treated with VNLG-152 (20 μmol/L) in the presence or absence of CHX (10 μmol/L) at 6, 12 and 24 h of treatment. (B) Densitometric analysis of the expression of fAR in different groups *, P< 0.05; ♣, P<0.01 compared with vehicle treated control. (C) Western blot analysis of the expression of fAR in LNCaP cells treated with VNLG-152 (20 μmol/L) in the presence or absence of MG-132 (5 μmol/L). (D) LNCaP cells were treated with 20 μmol/L of VNLG-152, 5 μmol/L of MG-132, and combinations for 24 h. AR protein was immunoprecipitated with AR antibody (mouse) and the precipitated protein was subjected to western blot analysis with anti-ubiquitin antibody (Ub) ([…]). The same blot was used to detect AR protein with anti-AR (rabbit) antibody after stripping (C, lower panel). […]
In general terms: Immunoblotting shows a protein as a band on a membrane.

Each structure is given as a SMILES string.

For the compound `CC1=C(/C=C/C(C)=C/C=C/C(C)=C/C(=O)Nc2ccc(F)cc2)C(C)(C)CCC1n1ccnc1` (racemic) [VNLG-152], the GI50 in the assay on PWR-1E cells is 47.9 µM. Also, the LNCaP cell viability result in the assay with LNCaP cells is on record as “robust reduction”. For the same compound, the “time by which AR and MNK (MNK1 and MNK2) were profoundly reduced” value in the assay on fAR, MNK1, MNK2, peIF4E (20 μmol/L) is no more than 12 h. In the assay with fAR, MNK1, MNK2, peIF4E (0.6-20 μM, 24 h), the “concentration of maximal effect on MNK2 expression” value came to 20 µM; the “concentration with notable decrease in expression of fAR, MNK1 and peIF4E” value was no less than 2.5 µM.

Broadly, the GI50 is the concentration giving 50% growth inhibition.

The values are drawn from PMC4413647, “Simultaneous targeting of androgen receptor (AR) and MAPK-interacting kinases (MNKs) by novel retinamides inhibits growth of human prostate cancer cell lines” (Oncotarget, 2014).
